The record followed here is patent US8053473B2, “Antibacterial agent comprising 7, 10-dihydroxy-8(E)-octadecenoic acid” (Kyung Pook National University Industry-Academic …, priority 2007, dated 2011).

For experiment [1], the system named is Bacillus subtillis ATCC 6501. Briefly: microbe, parasite or virus in culture. In kind it is cell-based. The conditions noted are these: ATCC6501, liquid YPD medium, OD540 up to 24 hours, read-out: minimal inhibitory concentration.
Experiment [2] concerns Pseudomonas syringae pv. sesami KACC 10649. The class given is cell-based. The conditions noted are these: liquid medium; Gram negative; FIG. 8.
In experiment [3] the test system is Staphylococcus aureus KCTC 1621. Briefly: Antibacterial activity on solid agar medium (clear zone around filter paper). The conditions noted are these: 5 mg/spot, similar level with Bactroban (3 mg Mupirocin), FIG. 5.
Experiment [4] concerns Staphylococcus aureus ATCC 6538. As to the kind of experiment: Antibacterial activity on solid agar medium 2. The note with it: Gram positive, FIG. 7.
The test system of experiment [5] is Ralstonia solanacearum KACC 10475. Briefly: microbe, parasite or virus in culture. In kind it is cell-based.
In experiment [6] the test system is Xanthomonas axonopodis pv. citri KACC 10443. As to the kind of experiment: Growth inhibition in liquid medium 2. In kind it is cell-based. The conditions noted are these: Gram negative, FIG. 8.
The test system of experiment [7] is Pseudomonas syringae pv. syringae KACC 10361. The class given is cell-based. The note with it: liquid medium; Gram negative; FIG. 8.
Experiment [8] relates to Corynebacterium glutamicum KACC 10784. The class given is cell-based. The conditions noted are these: liquid medium; Gram positive; FIG. 8.
Experiment [9] has as its system Pseudomonas syringae pv. actinidae KACC 10659. In kind it is cell-based. The conditions noted are these: liquid medium; Gram negative; FIG. 8.
Experiment [10] relates to Staphylococcus epidermidis KCTC 1917. As to the kind of experiment: Antibacterial activity on solid agar medium 2. The conditions noted are these: Gram positive, FIG. 7.
The test system of the next experiment is Erwinia sp. KACC 10207. In kind it is cell-based. The note with it: liquid medium; Gram negative; FIG. 8.
In experiment [11] the test system is Escherichia coli ATCC 8739. Briefly: Antibacterial activity on solid agar medium 2. The conditions noted are these: Gram negative, FIG. 7.
The test system of experiment [12] is Bacillus subtilis ATCC 6501. As to the kind of experiment: Antibacterial activity on solid agar medium 2. The conditions noted are these: Gram positive, FIG. 7.
Experiment [13] relates to Listeria monocytogenes ATCC 19111. As to the kind of experiment: Antibacterial activity on solid agar medium 2. The note with it: Gram positive, FIG. 7.
The test system of experiment [14] is Xanthomonas campestris KACC 10490. In kind it is cell-based. The conditions noted are these: liquid medium; Gram negative; FIG. 8.
The test system of experiment [15] is Salmonella typhimurium KCTC 2515. As to the kind of experiment: Antibacterial activity on solid agar medium (clear zone around filter paper).

Structures are written as SMILES. Some results are limits rather than exact numbers.

For the compound `CCCCCCCC[C@H](O)/C=C/[C@@H](O)CCCCCC(=O)O` [DOD, 7,10-dihydroxy-8(E)-octadecenoic acid], the MIC in [1] is under 125 µg/mL; in [5] (Ralstonia solanacearum, KACC10475, 24 h, read-out: minimal inhibitory concentration), under 125 µg/mL. Besides, the growth inhibitory effect result is listed as “had growth inhibitory effect” in experiment [2]; “had growth inhibitory effect” in experiment [5] (liquid medium, Gram negative, FIG. 8); “had growth inhibitory effect” in [6]; “had growth inhibitory effect” in experiment [7]; “had growth inhibitory effect” in experiment [8]; “had growth inhibitory effect” in experiment [9]. Besides, the growth inhibitory effect result (in the experiment with Erwinia sp. KACC 10207; in experiment [14]) was “had growth inhibitory effect” in each case. Moreover, the “antibacterial activity (clear zone)” value in experiment [3] was “high antibacterial activity”; in experiment [15] (5 mg/spot, similar level with Bactroban (3 mg Mupirocin), FIG. 5), “high antibacterial activity”. Further, the antibacterial activity entry in [4] is reported as “exhibited antibacterial activity”; in [10] it was “exhibited antibacterial activity”; in experiment [11] it was “exhibited antibacterial activity”; in experiment [12], “exhibited antibacterial activity”; in experiment [13] it was “exhibited antibacterial activity”; in [15] (Gram negative, FIG. 7), “exhibited antibacterial activity”.
